experiment: not given

Row | SMILES | logP
1 | CCOc1ccc(NC(=O)OC(C)COC)cc1OCC (stereo unspecified) | 2.56
2 | CCOc1ccc(NC(=O)OCCBr)cc1OCC | 2.78
3 | CCOc1ccc(NC(=O)OC(C)(C)C)cc1OCC | 3.17
4 | CCOc1ccc(NC(=O)OCCCl)cc1OCC | 2.62
5 | CCOc1ccc(NC(=O)OC(C)c2ccccc2)cc1OCC (stereo unspecified) | 3.56
6 | CCOc1ccc(NC(=O)OC(C)CF)cc1OCC (stereo unspecified) | 2.59
7 | CCCCCCC(C)OC(=O)Nc1ccc(OCC)c(OCC)c1 (stereo unspecified) | 5.06
8 | C=CCC(C)OC(=O)Nc1ccc(OCC)c(OCC)c1 (stereo unspecified) | 3.37
9 | C#CC(CC)OC(=O)Nc1ccc(OCC)c(OCC)c1 (stereo unspecified) | 3.07
10 | C#CCCOC(=O)Nc1ccc(OCC)c(OCC)c1 | 2.54
11 | CCOc1ccc(NC(=O)OC(C)C(Cl)(Cl)Cl)cc1OCC (stereo unspecified) | 3.96
12 | C=CC(CC)OC(=O)Nc1ccc(OCC)c(OCC)c1 (stereo unspecified) | 3.42
13 | C#CCC(C)OC(=O)Nc1ccc(OCC)c(OCC)c1 (stereo unspecified) | 2.86
14 | CCOc1ccc(NC(=O)OC(C)CCl)cc1OCC (stereo unspecified) | 2.97
15 | CCOc1ccc(NC(=O)OCCF)cc1OCC | 2.27

experiment: method code SF-AS, from DOI: 10.1584/jpestics.13.587

Row | SMILES | logP
16 | C#CC(C)OC(=O)Nc1ccc(OCC)c(OCC)c1 (stereo unspecified) | 2.68

Source: the SangsterLogP compilation
